Assay results as given in paper PMC9837035 (Nature Communications, 2023).

Key:
MLL2 [1] = assay: Radioisotope-based methyltransferase assay (selectivity); settings: MLL2, 1 μM SAM
DNMT1 = DNMT1 (Homo sapiens, UniProt P26358); assay: as above; settings: IC50, DNMT1, 1 μM SAM
[2] = system: CHD3 and CHD4 occupancy at the BGLT3 gene locus; assay: ChIP-qPCR with antibodies against CHD3 or CHD4 in HUDEP-2 cells; assay type: cell-based, human; settings: HUDEP-2, 1 μM, 4 days
Description: A total of 0.5–1 × 10^6 cells were cross-linked with 1% formaldehyde for 10 min at room temperature and the reaction was quenched with 250 mM glycine. Cross-linked cells were then lysed with buffer 1 (15 mM Tris-HCl (pH 7.5), 60 mM KCl, 15 mM NaCl, 5 mM MgCl2, 0.1 mM EGTA, 300 mM sucrose, […], 1 mM phenylmethanesulfonyl fluoride (PMSF), 0.5% NP40) and incubated on ice for 10 min. After centrifugation, the pellet was re-suspended in buffer 2 (15 mM Tris-HCl (pH 7.5), 60 mM KCl, 15 mM NaCl, 5 mM MgCl2, 0.1 mM EGTA, 1.2 M sucrose, […], 1 mM PMSF). After centrifugation, the pellet was then re-suspended in MNase buffer (50 mM Tris-HCl (pH 7.5), 1 mM CaCl2, 4 mM MgCl2, 320 mM sucrose, 1 mM PMSF) and digested with 100 U of micrococcal nuclease (Takara) at 37 °C for 15 min. […] The samples were analyzed by qPCR. […] ChIP-seq analysis were analyzed Cutadapt (V1.9.1) for QC, FastQC (V0.10.1) for QC assessment, Bowtie (V2.1.0) for mapping, strand cross-correlation (SCC) for ChIP quality assessment, MACS2 for peak calling, and R package ChIPpeakAnno for Peak annotated.

[3] = system: α-, β-, εy-, and βh1-globin mRNA in peripheral blood; assay: Globin mRNA levels in peripheral blood of treated mice; assay type: in vivo
Description: Total cellular RNA was prepared using the Tissue Total RNA Mini Kit (FAVORGEN), and cDNA was synthesized using ReverTra Ace Master Mix (TOYOBO). Expression of target genes was analyzed using THUNDERBIRD SYBR qPCR Mix (TOYOBO) on a CFX Connect Real Time System (Bio-Rad). The qPCR data were acquired on CFX Maestro (Bio-Rad). Primers are listed in Supplementary Table 10. GAPDH was used as a reference. Primers were purchased from INTEGRATED DNA TECHNOLOGIES or FASMAC.
C57BL/6 mice (6–8 weeks old, female, six mice/group) were purchased from Tokyo Laboratory Animals Science. The mice were fed a standard laboratory diet and housed in a temperature-controlled room under specific pathogen-free conditions. A combination anesthetic was prepared with 0.3 mg/kg medetomidine, 4.0 mg/kg midazolam, and 5.0 mg/kg butorphanol.
The dosing solution contained 15% DMSO, 17.5% Cremophor EL, 8.75% EtOH, 8.75% HCO-40, and 50% PBS. Blood samples were collected once a week by Retro Orbital Sampling (75 μL Calibrated Micropipette; Drummond Scientific Company) during isoflurane anesthesia. Blood RNA was extracted using NucleoSpin RNA Blood (Takara Bio Inc.). The weight of each mouse was measured every 3 or 4 days.

SUV39H1 = target: T1, SUV39H1 (Homo sapiens, UniProt O43463); assay: Radioisotope-based methyltransferase assay (selectivity); assay type: biochemical
T1 construct: purchased Reaction Biology

NSD2 = NSD2 (Homo sapiens, UniProt O96028); assay: as above
MLL2 [4] = target: MLL2 (Homo sapiens, UniProt O14686); assay: as above; settings: MLL2, 1 μM SAM
Chain of MLL2 (Homo sapiens, UniProt O14686) (O14686 5319-5537): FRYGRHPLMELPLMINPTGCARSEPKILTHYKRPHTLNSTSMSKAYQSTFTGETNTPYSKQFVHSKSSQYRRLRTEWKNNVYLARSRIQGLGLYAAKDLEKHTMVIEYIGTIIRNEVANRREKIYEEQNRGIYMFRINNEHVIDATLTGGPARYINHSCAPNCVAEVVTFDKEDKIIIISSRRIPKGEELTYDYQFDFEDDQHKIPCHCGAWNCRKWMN
Chain of MLL2 (Homo sapiens, UniProt O14686) (Q9C005 whole entry, further chain): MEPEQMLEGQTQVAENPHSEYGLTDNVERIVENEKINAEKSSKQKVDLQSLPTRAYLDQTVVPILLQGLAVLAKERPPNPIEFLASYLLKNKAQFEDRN
Chain of MLL2 (Homo sapiens, UniProt O14686) (Q15291 whole entry, further chain): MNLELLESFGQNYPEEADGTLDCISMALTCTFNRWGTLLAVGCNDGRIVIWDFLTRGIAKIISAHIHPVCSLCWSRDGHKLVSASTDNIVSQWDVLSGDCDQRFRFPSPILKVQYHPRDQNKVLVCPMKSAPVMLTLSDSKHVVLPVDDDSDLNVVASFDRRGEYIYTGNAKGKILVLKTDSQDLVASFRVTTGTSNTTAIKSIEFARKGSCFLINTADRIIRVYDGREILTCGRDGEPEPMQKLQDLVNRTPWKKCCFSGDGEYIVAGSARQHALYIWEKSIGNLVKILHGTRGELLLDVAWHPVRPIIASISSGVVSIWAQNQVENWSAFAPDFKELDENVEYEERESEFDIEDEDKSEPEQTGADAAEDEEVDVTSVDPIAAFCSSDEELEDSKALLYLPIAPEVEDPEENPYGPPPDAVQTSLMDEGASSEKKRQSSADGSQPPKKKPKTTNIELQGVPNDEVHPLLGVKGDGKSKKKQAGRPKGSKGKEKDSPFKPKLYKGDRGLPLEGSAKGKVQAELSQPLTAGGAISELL
Chain of MLL2 (Homo sapiens, UniProt O14686) (Q9UBL3 whole entry, further chain): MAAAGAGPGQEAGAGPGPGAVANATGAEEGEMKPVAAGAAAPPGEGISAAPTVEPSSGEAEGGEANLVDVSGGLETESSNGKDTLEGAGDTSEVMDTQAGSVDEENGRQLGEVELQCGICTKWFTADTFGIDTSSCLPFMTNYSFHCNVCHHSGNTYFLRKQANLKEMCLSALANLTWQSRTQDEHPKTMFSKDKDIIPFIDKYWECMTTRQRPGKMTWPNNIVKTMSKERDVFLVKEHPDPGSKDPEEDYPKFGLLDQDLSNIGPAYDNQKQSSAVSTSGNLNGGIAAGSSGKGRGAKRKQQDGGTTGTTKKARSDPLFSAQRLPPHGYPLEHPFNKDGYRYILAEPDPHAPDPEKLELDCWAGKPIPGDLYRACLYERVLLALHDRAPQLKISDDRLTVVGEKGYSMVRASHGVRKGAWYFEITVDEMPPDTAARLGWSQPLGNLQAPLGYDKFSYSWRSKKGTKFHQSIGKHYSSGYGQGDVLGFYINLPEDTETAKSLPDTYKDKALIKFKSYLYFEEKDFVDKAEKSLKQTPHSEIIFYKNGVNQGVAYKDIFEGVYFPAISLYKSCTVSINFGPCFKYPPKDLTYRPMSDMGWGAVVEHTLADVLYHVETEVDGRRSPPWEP

T1 sequence (O43463 whole entry): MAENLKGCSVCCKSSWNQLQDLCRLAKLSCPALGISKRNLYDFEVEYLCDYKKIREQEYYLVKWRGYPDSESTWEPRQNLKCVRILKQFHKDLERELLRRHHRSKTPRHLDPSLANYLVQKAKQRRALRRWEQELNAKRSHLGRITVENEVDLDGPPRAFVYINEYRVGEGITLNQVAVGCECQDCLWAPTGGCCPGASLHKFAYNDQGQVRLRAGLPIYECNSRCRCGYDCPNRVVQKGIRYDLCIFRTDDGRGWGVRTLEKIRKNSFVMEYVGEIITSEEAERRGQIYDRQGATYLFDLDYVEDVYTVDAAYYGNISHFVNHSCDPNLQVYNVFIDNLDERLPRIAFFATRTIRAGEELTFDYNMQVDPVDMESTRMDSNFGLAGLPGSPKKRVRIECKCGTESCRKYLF
Chain of MLL2 (O14686 5319-5537): as the sequence (O14686 5319-5537) above
Chain of MLL2 (Q9C005 whole entry, further chain): as the sequence (Q9C005 whole entry, further chain) above
Chain of MLL2 (Q15291 whole entry, further chain): as the sequence (Q15291 whole entry, further chain) above
Chain of MLL2 (Q9UBL3 whole entry, further chain): as the sequence (Q9UBL3 whole entry, further chain) above
Chain of DNMT1 (P26358 whole entry): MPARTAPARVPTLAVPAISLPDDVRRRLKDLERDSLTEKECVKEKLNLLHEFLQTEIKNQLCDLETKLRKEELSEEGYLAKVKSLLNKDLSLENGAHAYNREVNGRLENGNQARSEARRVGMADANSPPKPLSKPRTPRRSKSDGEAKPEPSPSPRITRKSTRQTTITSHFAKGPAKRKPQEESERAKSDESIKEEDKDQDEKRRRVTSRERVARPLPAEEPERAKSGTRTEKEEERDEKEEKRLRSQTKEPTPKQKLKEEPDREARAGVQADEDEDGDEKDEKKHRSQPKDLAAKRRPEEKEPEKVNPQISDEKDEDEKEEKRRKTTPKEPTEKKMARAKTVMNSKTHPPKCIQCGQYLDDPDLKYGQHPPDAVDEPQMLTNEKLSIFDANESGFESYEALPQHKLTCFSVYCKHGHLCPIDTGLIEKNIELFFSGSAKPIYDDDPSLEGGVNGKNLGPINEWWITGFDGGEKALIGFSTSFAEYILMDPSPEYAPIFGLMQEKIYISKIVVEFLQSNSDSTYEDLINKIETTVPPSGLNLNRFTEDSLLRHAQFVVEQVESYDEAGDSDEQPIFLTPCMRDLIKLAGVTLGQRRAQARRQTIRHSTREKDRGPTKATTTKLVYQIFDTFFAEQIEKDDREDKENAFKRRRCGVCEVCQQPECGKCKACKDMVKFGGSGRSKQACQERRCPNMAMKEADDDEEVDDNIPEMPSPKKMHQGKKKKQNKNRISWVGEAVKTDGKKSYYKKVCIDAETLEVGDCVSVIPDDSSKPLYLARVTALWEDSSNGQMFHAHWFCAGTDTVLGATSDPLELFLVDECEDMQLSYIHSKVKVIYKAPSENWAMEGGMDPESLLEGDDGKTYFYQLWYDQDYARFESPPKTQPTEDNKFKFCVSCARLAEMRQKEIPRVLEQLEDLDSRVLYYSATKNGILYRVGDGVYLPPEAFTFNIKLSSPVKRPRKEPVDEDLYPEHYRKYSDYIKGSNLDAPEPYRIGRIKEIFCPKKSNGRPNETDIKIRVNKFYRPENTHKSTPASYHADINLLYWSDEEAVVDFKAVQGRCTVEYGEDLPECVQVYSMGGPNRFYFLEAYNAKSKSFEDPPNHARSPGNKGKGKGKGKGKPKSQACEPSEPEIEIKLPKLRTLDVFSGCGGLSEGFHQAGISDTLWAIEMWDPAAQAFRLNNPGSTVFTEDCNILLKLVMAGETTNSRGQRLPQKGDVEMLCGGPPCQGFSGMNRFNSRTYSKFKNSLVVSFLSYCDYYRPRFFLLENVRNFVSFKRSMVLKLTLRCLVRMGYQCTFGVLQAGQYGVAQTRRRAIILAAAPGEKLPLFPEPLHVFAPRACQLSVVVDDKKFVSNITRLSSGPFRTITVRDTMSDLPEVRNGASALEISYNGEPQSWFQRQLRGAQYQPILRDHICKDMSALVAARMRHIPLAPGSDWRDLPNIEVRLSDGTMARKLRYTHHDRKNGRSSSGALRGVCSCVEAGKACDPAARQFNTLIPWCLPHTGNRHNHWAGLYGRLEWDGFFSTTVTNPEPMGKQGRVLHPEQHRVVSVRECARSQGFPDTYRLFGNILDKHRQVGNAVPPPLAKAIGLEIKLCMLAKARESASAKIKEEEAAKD
Chain of NSD2 (O96028 whole entry): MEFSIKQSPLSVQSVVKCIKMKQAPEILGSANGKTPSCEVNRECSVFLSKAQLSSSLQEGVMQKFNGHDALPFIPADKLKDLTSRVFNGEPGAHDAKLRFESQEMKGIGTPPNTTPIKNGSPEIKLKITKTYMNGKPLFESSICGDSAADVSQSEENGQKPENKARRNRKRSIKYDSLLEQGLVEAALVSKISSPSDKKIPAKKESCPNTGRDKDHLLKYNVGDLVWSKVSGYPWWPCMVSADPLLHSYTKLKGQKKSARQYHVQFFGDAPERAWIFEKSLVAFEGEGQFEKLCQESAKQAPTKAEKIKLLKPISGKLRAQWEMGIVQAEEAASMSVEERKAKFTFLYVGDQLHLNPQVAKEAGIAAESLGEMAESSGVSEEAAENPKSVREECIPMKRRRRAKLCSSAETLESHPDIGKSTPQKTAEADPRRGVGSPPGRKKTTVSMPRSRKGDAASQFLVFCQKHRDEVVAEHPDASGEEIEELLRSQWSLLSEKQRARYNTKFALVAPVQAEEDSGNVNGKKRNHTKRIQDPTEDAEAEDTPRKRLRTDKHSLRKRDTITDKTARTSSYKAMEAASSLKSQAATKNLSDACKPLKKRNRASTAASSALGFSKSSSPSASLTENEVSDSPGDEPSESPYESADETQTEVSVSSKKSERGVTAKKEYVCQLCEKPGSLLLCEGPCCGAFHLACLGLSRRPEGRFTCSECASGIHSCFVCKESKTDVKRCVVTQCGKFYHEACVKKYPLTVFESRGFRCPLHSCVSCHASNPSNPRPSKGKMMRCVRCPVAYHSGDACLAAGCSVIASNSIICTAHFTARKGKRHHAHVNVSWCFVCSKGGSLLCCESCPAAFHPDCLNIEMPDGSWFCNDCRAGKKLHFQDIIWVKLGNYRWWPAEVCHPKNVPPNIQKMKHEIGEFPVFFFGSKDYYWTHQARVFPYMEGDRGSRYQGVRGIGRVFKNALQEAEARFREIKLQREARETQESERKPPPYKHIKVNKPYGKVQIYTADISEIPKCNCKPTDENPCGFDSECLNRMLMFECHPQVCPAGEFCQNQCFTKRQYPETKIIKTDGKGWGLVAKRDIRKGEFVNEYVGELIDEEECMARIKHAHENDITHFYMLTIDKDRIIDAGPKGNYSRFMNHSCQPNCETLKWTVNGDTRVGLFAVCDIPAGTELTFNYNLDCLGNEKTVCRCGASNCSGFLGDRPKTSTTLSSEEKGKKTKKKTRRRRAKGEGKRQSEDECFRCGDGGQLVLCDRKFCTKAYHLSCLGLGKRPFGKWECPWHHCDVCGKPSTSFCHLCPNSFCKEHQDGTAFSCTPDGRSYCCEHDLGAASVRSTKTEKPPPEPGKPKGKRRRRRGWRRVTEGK

SMILES | IC50 (MLL2 [1]) | IC50 (DNMT1) | occupancy of CHD4 on the BGLT3 gene locus [2] | mouse embryonic εy-globin [3] | IC50 (SUV39H1; SUV39H1, 1 μM SAM) | IC50 (SUV39H1; SUV39H1, RK-701 in duplicate) | IC50 (NSD2) | IC50 (MLL2 [4])
Cc1c(C(=O)NC(CCC2CC2)C(=O)Nc2ccc(C#N)cc2)[nH]c2c1C(=O)CC(C)(C)C2 (centres unmarked) [RK-701] | > 100 µM | > 100 µM | significantly decreased | selectively increased | > 100 µM | > 100 µM | > 100 µM | 
Nc1ncnc2c1ncn2[C@@H]1O[C@H](CSCC[C@H](N)C(=O)O)[C@@H](O)[C@H]1O [SAH, S-(5'-Adenosyl)-L-homocysteine, reference compound] |  |  |  |  |  |  |  | 11.6 µM
